These results are taken from a melting point compilation (Tetko et al.; mined from patent text by program, amines drawn as free bases though some values may be those of a salt).

Molecules are shown by their SMILES. Where only a bound is given, the exact number is not on record here.

In the case of `CCCOc1ccccc1-c1ncc(C(=O)N(C)C)c(=O)[nH]1`, the melting point (as a rule, the temperature of the solid-liquid transition) is 104 to 105 °C. `O=C(O)c1ccc(-c2cccc3cc(Cc4cccc(C(F)(F)F)c4)sc23)cc1` returned a melting point of 200 to 201 °C. Compound `CC(C)n1nc(C(=CN(C)C)C(=O)c2ccc(F)cc2)ccc1=O` came in with a melting point of 161 to 162 °C. Compound `NC(=NO)c1ccc2c(c1)nc(-c1ccc(OCc3ccccc3)cc1)n2C1CCCC1` had a melting point of 225 to 226 °C.

For the compound `COc1ccc(N2C(=O)N(c3cccc(C#N)c3)c3nc(Nc4ccccc4)ncc3C2C)c(F)c1` (configuration not stated), the melting point fell in the range of 223 to 228 °C. To `CCc1cc(NC(=O)c2cccs2)cc(CC)c1O` belongs 190 to 192 °C; to `O=[N+]([O-])c1ccc2[nH]cc(C3=CCN(CC4CC4)CC3)c2c1`, 187 to 188 °C; to `Cn1c(=O)c2c(ncn2CCCC#N)n(C)c1=O`, 146 to 150 °C. For `CC(=O)Nc1ccc(C=O)cc1F`, the melting point was 133 °C. To `COc1cc(OC)nc(Nc2ccc(C)cc2[N+](=O)[O-])n1` belongs 158 to 161 °C; to `CN(Cc1ccc2[nH]cc(CCN3C(=O)c4ccccc4C3=O)c2c1)S(=O)(=O)C(F)(F)F`, 131 to 133 °C; to `CN1CCN(C2=Nc3ccccc3C(O)(c3ccccc3)C2(C)C)CC1` (configuration not stated), 268 to 269 °C. `OC1Cc2cc(F)ccc2Sc2ccccc21` (configuration not stated) yielded a melting point of 110 to 113 °C. In turn, `CNc1cc(N2CCc3ccccc32)cc(C)n1` gave a melting point of 174 to 175 °C. The compound `Cc1ccccc1C(C#N)=C1C=CC(=NOP(=O)(c2ccccc2)c2ccccc2)S1` gave a melting point of 165 to 167 °C. In turn, `CN(C1CC(C)(C)Oc2ccc(OCc3ccccc3)cc21)S(C)(=O)=O` (configuration not stated) gave a melting point of 114 to 116 °C. The same measure for `CC(C)(C)OC(=O)N1CCCN(c2ccc([N+](=O)[O-])cc2C#N)CC1`: 98 °C; for `O=C(O)Cn1c(-c2ccccc2)ncc(NC(=O)OCc2ccccc2)c1=O`: 179 to 183 °C; for `COc1cc(-c2nc3ccccc3n2Cc2ccccc2C)cc(OC)c1OC`: 140 °C.

Take `CC(C)C[C@@H](CC=O)NC(=O)[C@H](Cc1c[nH]cn1)NC(=O)[C@H](Cc1cccc2ccccc12)NC(=O)OCc1ccccc1`: the melting point is 153 to 156 °C.

For the compound `Cc1ccc(C2=C(c3ccc(S(C)(=O)=O)cc3)C(=O)N(C)C2)cc1`, the melting point lay within 183 to 185 °C.

Take `COCCOCOc1c(C(C)(C)C)cc(-c2n[nH]c(=S)s2)cc1C(C)(C)C`: the melting point fell in the range of 134 to 135 °C. For `CCOc1nn(-c2ccc(C(F)(F)F)cn2)cc1CCCOc1nn(-c2ccccc2)cc1CC(=O)O`, the melting point fell in the range of 117 to 118 °C. Compound `NC(=O)c1cccc(-c2cccc3cc(Cc4cc(F)cc(C(F)(F)F)c4)sc23)c1` displayed a melting point of 147 to 148 °C. Regarding `CC(=O)Nc1c(C(=O)c2cccc(C(=O)O)c2)[nH]c2cc(Cl)ccc12`, the melting point was greater than 290 °C. To `COC(=O)c1cc2cc(C(=O)c3cccs3)c(Cl)c(Cl)c2o1` belongs 184 to 187 °C. As for `Cc1ncnn1-c1cc(F)ccc1CNC(=O)c1nc2n(c(=O)c1OCc1ccccc1)CCN2c1ccccc1`, the melting point stood at 181 °C.

`CCCCCC(=O)CCC(C)=O` yielded a melting point of 18 °C. In turn, `COC(=O)c1scc(C)c1NC(=O)CC12CC3CC(CC(C3)C1)C2` gave a melting point of 124 °C. Consider `CC(C)N(O)C(=O)Nc1cccc(S(C)(=O)=O)c1`, for which the melting point fell in the range of 168 to 169 °C. On to `Cc1nn(C)c2[nH]c(=O)c3ccccc3c12`, for which the melting point is greater than 310 °C. The compound `COc1cccc(CNC(=O)c2nc3cccc(OCCc4ccc(C(=O)O)cc4)c3c(=O)[nH]2)c1` gave a melting point of 228 to 230 °C.

Take `O=C(O)c1ncn2c1c(=O)[nH]c1ccccc12`: the melting point is greater than 300 °C. In the case of `Cc1nc(-c2ccc(Cl)cc2)oc1COC(C)(C)C(N)=O`, the melting point is 177 to 178 °C. Compound `O=Cc1cccc(/C=C/c2nc3cc(F)ccc3s2)c1` returned a melting point of 151 to 152 °C.

In the case of `CC(=O)Oc1cc(Cl)ccc1C1(OC(C)=O)C(=O)c2ccccc2C1=O`, the melting point was in the range of 148 to 150 °C.

Regarding `Cc1cc(CCCCCOc2ccc(C3=NCCO3)cc2C(F)F)on1`, the melting point fell in the range of 80 to 89 °C. The same measure for `CC(=O)CN1C(=O)c2ccc3ccccc3c2S1(=O)=O`: 163 to 165 °C; for `CC1(C)CCC(C)(C)c2cc(C(C(N)=O)C(=O)OCc3ccccc3)ccc21` (configuration not stated): 112 to 113 °C; for `CC(=NNCCc1ccccc1)C(=O)O`: 74 to 76 °C. The compound `CSCCC(NC(=O)c1ccc(COc2cccnc2)cc1Oc1ccccc1)C(=O)O` (configuration not stated) yielded a melting point of 195 °C. On to `COC(=O)c1ccc2c(oc3ccccc32)c1C(=O)OC`, for which the melting point stood at 123 °C. Take `CCCCCCCCCCCCCCCCNc1ccc(C(=O)OCC(COC(C)=O)OC(C)=O)cc1` (configuration not stated): the melting point turned out to be 68 °C. For the compound `O=c1c(-c2nnn[nH]2)coc2ccccc12`, the melting point fell in the range of 284 to 285 °C. The same measure for `COc1ccc(Cn2c(NC3CCN(CCNc4ncccn4)CC3)nc3ccccc32)cc1`: 160 °C; for `C[C@H]1CC(=O)O[C@@H]1CO`: 104 to 105 °C. `CCN(CC)CCN1NC(N)=c2cc3c(nc21)=CC(O)(OC)C=C3` (configuration not stated) returned a melting point of 232 to 235 °C. Compound `C#CC(C)Oc1cc(Cc2cnc(N)nc2N)cc(OC)c1OC` (configuration not stated) had a melting point of 153 to 155 °C. The same measure for `C=C1CC2C(CCC3(C)C2C=CC3(C)O)C2(C)CCC(=O)C=C12` (configuration not stated): 162 °C.

Consider `NC[C@@H]1C(=O)N[C@H]1SC(c1ccccc1)(c1ccccc1)c1ccccc1` (relative stereo), for which the melting point amounted to 139 °C. To `COC(=O)C(NC(=S)n1nc(Oc2ncc(C(F)(F)F)cc2Cl)cc1C)C(C)C` (configuration not stated) belongs 109 to 110 °C; to `CCNc1nc2cc(Cc3c(C)nc4cc(C)ccn34)ccc2o1`, 209 to 211 °C. The compound `CC1(C)CNc2cc3[nH]c(-c4ccncc4)nc3cc21` registered a melting point of 147 to 149 °C. For the compound `COc1ccccc1C(=CC#N)c1ccccc1OC`, the melting point lay within 99 to 100 °C. To `O=C1c2ccccc2-c2c1c1ccccc1c(=O)n2CCCCCNS(=O)(=O)c1ccccc1` belongs 194 to 195 °C.

On to `COC(=O)Nc1ccc(N)c(NCCO)c1`, for which the melting point was in the range of 240 to 242 °C. `Nc1cccc2c1CC=CC2` came in with a melting point of 37 to 39 °C. On to `N#Cc1ccc2c(c1)N=Cc1ccccc1O2`, for which the melting point is 158 to 159 °C.

On to `COc1cc(COc2nn(Cc3ccccc3)cc2C(C)O)ccc1OCc1nc(-c2ccco2)oc1C` (configuration not stated), for which the melting point lay within 105 to 106 °C.

Turning to `Cn1c(=O)n(Cc2ccccc2)c(=O)c2cc(C(=O)OCc3ccccc3)sc21`, the melting point was 143 to 145 °C. For `CC(C)(C)[S@](=O)N1CCC[C@@H]1c1ccc(Cl)cc1`, the melting point stood at 80 °C. Consider `COC(=O)C(C)=CNC(=O)Nc1cc(C(=O)OC(C)C)c(Cl)cc1F`, for which the melting point is 189 to 190 °C. For `CNC(=O)CCC1CCN(Cc2cnc3cc(NC(=O)c4ccc(-c5ccc(F)cc5)cc4)c(C)cc3c2)CC1`, the melting point is 207 to 211 °C. The same measure for `O=C(Nc1cccc2c(-c3ccccc3)c([N+](=O)[O-])oc12)C(F)(F)F`: 194 to 196 °C; for `CCOc1ccc([N+](=O)[O-])c(C)c1`: 41 to 43 °C. Consider `COc1ccc(C(=O)c2c(CO[N+](=O)[O-])[nH]c(=O)n2C(C)=O)cc1`, for which the melting point fell in the range of 165 to 166 °C. To `Cn1nc(-c2cccs2)n(C)c1=O` belongs 108 to 110 °C; to `Cc1ccc(C)c2c1C(=O)N(c1ccc(F)cc1F)C2=O`, 212 °C; to `Cc1cccc(-c2nc3cccnn3c2-c2ccnc(NC(=O)C3CC3)c2)c1`, 203 to 204 °C.

Regarding `CC(C)(C(=O)O)c1cn2nc(CCCN3CCN(C(c4ccccc4)c4ccccc4)CC3)ccc2n1`, the melting point fell in the range of 176 to 178 °C. To `CC(C)(C)OC(=O)N1CCC(N2Cc3cc(Br)ccc3C2=O)CC1` belongs 179 to 180 °C. For the compound `NC(=O)CCN(CCC(N)=O)Cc1ccccc1`, the melting point was 103 to 106 °C. On to `CNC1(c2ccccc2Cl)C(=O)N(S(=O)(=O)c2ccc([N+](=O)[O-])cc2)c2ccc(Cl)cc21` (configuration not stated), for which the melting point lay within 220 to 221 °C. The compound `CCCCCCCCCCCC1Nc2ccccc2-c2c([N+](=O)[O-])cnn21` (configuration not stated) registered a melting point of 92 to 93 °C. The same measure for `CC1(C)C(=O)Oc2ccc(OS(C)(=O)=O)cc21`: 120 to 121 °C. For `COc1cc2ncc(C#N)c(Nc3ccc(C)cc3O)c2cc1OC`, the melting point was greater than 250 °C.

Compound `COc1ccc(-c2cc(S(N)(=O)=O)sc2-c2ccc(OC)c(S(N)(=O)=O)c2)cc1S(N)(=O)=O` had a melting point of 242 to 244 °C. As to `COC(=O)c1ccc(O)cc1NC(=O)c1cccc2ccccc12`, the melting point lay within 246 to 248 °C. `CCOC(=O)c1snc(C(=O)OC(C)(C)C)c1N` registered a melting point of 68 to 69 °C. The compound `Oc1ccc(Oc2ccc(OC(F)(F)F)cc2)cc1` came in with a melting point of 44 to 46 °C.

`O=C(c1nc2ccccc2n1Cc1ccc(F)cc1)C1CCN(CCC2(Cc3ccc(C(F)(F)F)cc3)CCN(Cc3ccccc3)C2=O)CC1` (configuration not stated): the melting point was in the range of 104 to 106 °C.

For `COc1cc(N2CCC(N3CCN(C)CC3)CC2)ccc1Nc1ncc2cc3ccccc3n2n1`, the melting point was in the range of 176 to 179 °C. `Cc1ccc(C(=O)NCCN(C)C)cc1-n1c(C)cc(OCc2ccccc2CNC(=O)Nc2cc(C(C)(C)C)nn2-c2ccc(Cl)c(O)c2)c(Cl)c1=O` gave a melting point of 185 to 186 °C.

In the case of `O=C(NCc1ccccc1)c1cnc(-c2ccccc2)nc1S`, the melting point was in the range of 189 to 193 °C.

`COc1ccc2[nH]cc(CN(C)C)c2c1Cl` had a melting point of 145 to 149 °C. For the compound `N#Cc1ccc(C(=O)c2ccc(O)c(CC(=O)O)c2)cc1`, the melting point was determined as 218 °C. On to `FC(F)(F)c1cc(Cl)c(-c2nc(C(F)(F)F)c[nH]2)c(Cl)c1`, for which the melting point fell in the range of 213 to 215 °C.
